Results on 24 compounds are retold here after patent US10189841B2, “Purinones as ubiquitin-specific protease 1 inhibitors” (Forma Therapeutics, Inc., priority 2015, dated 2019).

pIC50: −log10 of the molar value.

Chain of USP1 (construct USP1 (I-785, GG670, 671AA)/UAF1 (I-677)-Flag) (O94782 whole entry G670A/G671A): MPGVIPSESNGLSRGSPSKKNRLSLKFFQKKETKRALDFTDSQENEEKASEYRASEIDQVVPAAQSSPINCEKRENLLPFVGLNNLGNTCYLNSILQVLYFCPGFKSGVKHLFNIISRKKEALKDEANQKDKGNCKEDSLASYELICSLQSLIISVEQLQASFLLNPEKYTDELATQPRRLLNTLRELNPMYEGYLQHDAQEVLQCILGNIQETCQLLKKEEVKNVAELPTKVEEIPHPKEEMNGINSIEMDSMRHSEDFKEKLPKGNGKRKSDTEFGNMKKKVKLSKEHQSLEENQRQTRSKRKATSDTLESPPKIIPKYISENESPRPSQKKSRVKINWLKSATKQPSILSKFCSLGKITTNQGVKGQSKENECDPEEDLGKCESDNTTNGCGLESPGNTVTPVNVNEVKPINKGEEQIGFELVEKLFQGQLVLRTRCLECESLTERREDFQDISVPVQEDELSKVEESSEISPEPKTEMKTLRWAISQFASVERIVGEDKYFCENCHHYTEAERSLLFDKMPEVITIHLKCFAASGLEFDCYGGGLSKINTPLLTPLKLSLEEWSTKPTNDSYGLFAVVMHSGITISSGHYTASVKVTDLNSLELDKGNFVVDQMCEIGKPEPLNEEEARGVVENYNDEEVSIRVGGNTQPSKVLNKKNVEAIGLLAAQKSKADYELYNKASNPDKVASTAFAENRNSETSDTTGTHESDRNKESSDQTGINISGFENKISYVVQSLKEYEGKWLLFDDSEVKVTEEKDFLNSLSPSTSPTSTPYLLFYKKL
Chain of USP1 (construct USP1 (I-785, GG670, 671AA)/UAF1 (I-677)-Flag) (Q8TAF3 whole entry partner): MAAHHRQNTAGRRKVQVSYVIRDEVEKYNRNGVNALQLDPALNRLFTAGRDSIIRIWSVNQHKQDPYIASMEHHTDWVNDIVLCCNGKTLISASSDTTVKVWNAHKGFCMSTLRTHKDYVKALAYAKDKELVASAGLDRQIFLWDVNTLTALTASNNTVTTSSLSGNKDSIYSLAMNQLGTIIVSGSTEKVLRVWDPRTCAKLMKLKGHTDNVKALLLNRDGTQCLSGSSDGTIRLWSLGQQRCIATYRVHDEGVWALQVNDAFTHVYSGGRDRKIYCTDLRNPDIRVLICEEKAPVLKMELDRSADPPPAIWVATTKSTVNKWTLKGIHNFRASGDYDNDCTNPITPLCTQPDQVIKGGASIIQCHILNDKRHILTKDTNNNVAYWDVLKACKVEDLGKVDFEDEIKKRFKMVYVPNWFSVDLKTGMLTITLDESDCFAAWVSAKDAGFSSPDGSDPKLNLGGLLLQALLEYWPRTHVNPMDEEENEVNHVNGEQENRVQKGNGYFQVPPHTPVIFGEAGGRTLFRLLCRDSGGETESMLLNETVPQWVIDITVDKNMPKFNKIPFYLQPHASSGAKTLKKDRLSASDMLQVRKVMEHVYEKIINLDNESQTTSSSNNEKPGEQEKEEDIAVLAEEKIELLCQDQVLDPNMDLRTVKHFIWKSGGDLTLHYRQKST

The target in this assay is USP1 (construct USP1 (I-785, GG670, 671AA)/UAF1 (I-677)-Flag) (Homo sapiens (Human), UniProt O94782, G670A/G671A). Kind of assay: Ubiquitin-Rhodamine 110 assay for USP1 activity. Format: biochemical. The following applies: USP1/UAF1 25 pM, Ub-Rh110 25 nM, 30 min preincubation. The protocol:
Example 53: Ubitquin-Rhodamine 110 Assay for USP1 Activity
The HTS assay was performed in a final volume of 20 μL in assay buffer containing 20 mM Tris-HCl (pH 8.0, (1M Tris-HCl, pH 8.0 solution; Corning 46-031-CM)), 2 mM CaCl2 (1M Calcium Chloride solution; Sigma #21114) 1 mM GSH (L-Glutathione reduced; Sigma #G4251), 0.01% Prionex ([…] filtered, Sigma #G-0411), and 0.01% Triton X-100. Stock compound solutions were stored at −20° C. as 10 mM in DMSO. Up to 1 month prior to the assay, 2 mM test compounds were pre-dispensed into assay plates (Black, low volume; Corning #3820) and frozen at −20° C. Prestamped assay plates were allowed to come to room temperature on the day of the assay. For the screen, 100 nL of 2 mM was pre-dispensed for a final screening concentration of […] (DMSO(fc)=0.5%). The final concentration of the enzyme (USP1, construct USP1 (I-785, GG670, 671AA)/UAF1 (I-677)-Flag; Viva) in the assay was 100 pM. Final substrate (Ub-Rh110; Ubiquitin-Rhodamine 110, R&D Systems #U-555) concentration was 25 nM with [Ub-Rh110]<<Km. […] Plates were incubated stacked for 45 minutes at room temperature before fluorescence was read on the Envision (Excitation at 485 nm and Emission at 535 nm; Perkin Elmer) or on the PheraSTAR (Excitation at 485 nm and Emission at 535 nm; BMG Labtech)
Nanoliter quantities of either an 8-point or 10-point, 3-fold serial dilution in DMSO was pre-dispensed into assay plates (Perkin Elmer, ProxiPlate-384 F Plus, #6008269) for a final test concentration range of either 25 μM to 11 nM or 25 μM to 1.3 nM, respectively. The final concentration of the enzyme (USP1, construct USP1 (I-785, GG670, 671AA)/UAF1 (I-677)-Flag; Viva) in the assay was 25 pM. Final substrate (Ub-Rh110; Ubiquitin-Rhodamine 110, R&D Systems #U-555) concentration was 25 nM with [Ub-Rh110]<<Km. […] Plates were incubated stacked for 20 minutes at room temperature before 5 μL of stop solution (final concentration of 10 mM citric acid in assay buffer (Sigma, #251275-500G)). Fluorescence was read on the Envision (Excitation at 485 nm and Emission at 535 nm; Perkin Elmer) or on the PheraSTAR (Excitation at 485 nm and Emission at 535 nm; BMG Labtech).
For both assay formats data were reported as percent inhibition compared with control wells based on the following equation: % inh=[1−((FLU−AveLow)/(AveHigh−AveLow))]×100 where FLU=measured Fluorescence, AveLow=average Fluorescence of no enzyme control (n=16), and AveHigh=average Fluorescence of DMSO control (n=16). IC50 values were determined by curve fitting of the standard 4 parameter logistic fitting algorithm included in the Activity Base software package: IDBS XE Designer Model205. Data is fitted using the Levenburg Marquardt algorithm.
By pIC50 is commonly meant the IC50 on a negative log10 scale, so that one unit is a factor of ten. Lower therefore signals a large IC50. Compound `COc1cc(C(F)(F)F)nn1-c1ccc(Cn2c(=O)[nH]c3cnc(-c4cccnc4C(C)C)nc32)cc1` [Compound I-60, 2-(2-isopropylpyridin-3-yl)-9-(4-(5-methoxy-3-(trifluoromethyl)-1H-pyrazol-1-yl)benzyl)-7,9-dihydro-8H-purin-8-one] showed a pIC50 of over 7.30. For `CC(C)c1ccccc1-c1ncc2[nH]c(=O)n(Cc3ccc(C4OCC4(C)C)cc3)c2n1` (stereo not drawn) [Compound I-216, 9-(4-(3,3-dimethyloxetan-2-yl)benzyl)-2-(2-isopropylphenyl)-7,9-dihydro-8H-purin-8-one], the pIC50 was 6.70 to 7.30. With `COc1cccc(-c2ncc3[nH]c(=O)n(Cc4ccc(-n5cccn5)cc4)c3n2)c1C(C)C` [Compound I-92, 9-(4-(1H-pyrazol-1-yl)benzyl)-2-(2-isopropyl-3-methoxyphenyl)-7,9-dihydro-8H-purin-8-one], the pIC50 was 5.70 to 6.70.

`CC(C)c1ccccc1-c1ncc2[nH]c(=O)n(C3(c4ccc(-n5cccn5)cc4)CC3)c2n1` [Compound I-226, 9-(1-(4-(1H-pyrazol-1-yl)phenyl)cyclopropyl)-2-(2-isopropylphenyl)-7,9-dihydro-8H-purin-8-one] gave a pIC50 of over 7.30. As for `Cn1cc(C(F)(F)F)nc1-c1ccc(Cn2c(=O)[nH]c3cnc(-c4cccnc4OCC4CCCO4)nc32)cc1` (stereo not drawn) [Compound I-424, 9-(4-(1-methyl-4-(trifluoromethyl)-1H-imidazol-2-yl)benzyl)-2-(2-((tetrahydrofuran-2-yl)methoxy)pyridin-3-yl)-7,9-dihydro-8H-purin-8-one], the pIC50 was over 7.30. Compound `CC(C)c1ccncc1-c1ncc2c(n1)n(Cc1ccc(-n3cccn3)cc1)c(=O)n2C` [Compound I-17, 9-(4-(1H-pyrazol-1-yl)benzyl)-2-(4-isopropylpyridin-3-yl)-7-methyl-7,9-dihydro-8H-purin-8-one] gave a pIC50 of under 5.70. Under `CC(C)c1ncccc1-c1ncc2c(n1)n(Cc1ccc(-n3cccn3)cc1)c(=O)n2C` [Compound I-7, 9-(4-(1H-pyrazol-1-yl)benzyl)-2-(2-isopropylpyridin-3-yl)-7-methyl-7,9-dihydro-8H-purin-8-one] stands 5.70 to 6.70; under `CC(C)c1ccccc1-c1ncc2[nH]c(=O)n(Cc3ccc(-c4nccn4C)cc3)c2n1` [Compound I-160, 2-(2-isopropylphenyl)-9-(4-(1-methyl-1H-imidazol-2-yl)benzyl)-7,9-dihydro-8H-purin-8-one], over 7.30. Regarding `CC(C)c1ccccc1-c1ncc2[nH]c(=O)n(Cc3ccc4c(c3)ncn4C)c2n1` [Compound I-182, 2-(2-isopropylphenyl)-9-((1-methyl-1H-benzo[d]imidazol-5-yl)methyl)-7,9-dihydro-8H-purin-8-one], the pIC50 was under 5.70.

Regarding `Cc1cnnn1-c1ccc(Cn2c(=O)[nH]c3cnc(-c4ccccc4C(C)C)nc32)cc1` [Compound I-185, 2-(2-isopropylphenyl)-9-(4-(5-methyl-1H-1,2,3-triazol-1-yl)benzyl)-7,9-dihydro-8H-purin-8-one], the pIC50 was over 7.30. Turning to `Cn1cc(C(F)(F)F)nc1-c1ccc(Cn2c(=O)[nH]c3cnc(-c4cccnc4NC4CC4)nc32)cc1` [Compound I-314, 2-(2-(cyclopropylamino)pyridin-3-yl)-9-(4-(1-methyl-4-(trifluoromethyl)-1H-imidazol-2-yl)benzyl)-7,9-dihydro-8H-purin-8-one], the pIC50 is over 7.30. As to `Cc1nc(-c2ccc(Cn3c(=O)[nH]c4cnc(-c5ccccc5C(C)C)nc43)cc2)n(C)n1` [Compound I-296, 9-(4-(1,3-dimethyl-1H-1,2,4-triazol-5-yl)benzyl)-2-(2-isopropylphenyl)-7,9-dihydro-8H-purin-8-one], the pIC50 was over 7.30.

The compound `COCC1CCCN(C(=O)c2ccc(Cn3c(=O)[nH]c4cnc(-c5ccccc5C(C)C)nc43)cc2)C1` (stereo not drawn) [Compound I-368, 2-(2-isopropylphenyl)-9-(4-(3-(methoxymethyl)piperidine-1-carbonyl)benzyl)-7,9-dihydro-8H-purin-8-one] had a pIC50 of 6.70 to 7.30. Under `CC(C)c1ccccc1-c1ncc2[nH]c(=O)n(Cc3ccc(-c4nc(C(F)(F)F)cn4C)cc3)c2n1` [Compound I-138, 2-(2-Isopropylphenyl)-9-(4-(1-methyl-4-(trifluoromethyl)-1H-imidazol-2-yl)benzyl)-7,9-dihydro-8H-purin-8-one] stands over 7.30; under `CC(C)c1ccccc1-c1ncc2[nH]c(=O)n(Cc3ccc(C(=O)N(C)C4CC4)cc3)c2n1` [Compound I-379, N-cyclopropyl-4-((2-(2-isopropylphenyl)-8-oxo-7,8-dihydro-9H-purin-9-yl)methyl)-N-methylbenzamide], over 7.30; under `COc1nc(-c2ccccc2C(C)C)nc2c1[nH]c(=O)n2Cc1ccc(-c2nc(C(F)(F)F)cn2C)cc1` [Compound I-535, 2-(2-Isopropylphenyl)-6-methoxy-9-(4-(1-methyl-4-(trifluoromethyl)-1H-imidazol-2-yl)benzyl)-7,9-dihydro-8H-purin-8-one], over 7.30. Under `CC(C)c1ccccc1-c1ncc2[nH]c(=O)n(Cc3ccccc3)c2n1` [Compound I-171, 9-benzyl-2-(2-isopropylphenyl)-7,9-dihydro-8H-purin-8-one] stands 6.70 to 7.30; under `CC(C)c1ccccc1-c1ncc2[nH]c(=O)n(Cc3ccc(-n4ccc(C5CCNC5)n4)cc3)c2n1` (stereo not drawn) [Compound I-222, 2-(2-isopropylphenyl)-9-(4-(3-(pyrrolidin-3-yl)-1H-pyrazol-1-yl)benzyl)-7,9-dihydro-8H-purin-8-one], 5.70 to 6.70. As to `CC(C)c1ccccc1-c1ncc2c(n1)n(Cc1cccc(OCc3ccccn3)c1)c(=O)n2C` [Compound I-242, 2-(2-isopropylphenyl)-7-methyl-9-(3-(pyridin-2-ylmethoxy)benzyl)-7,9-dihydro-8H-purin-8-one], the pIC50 was under 5.70.

For the compound `CC(C)c1ncccc1-c1ncc2[nH]c(=O)n(Cc3ccc(-c4nc(C(F)(F)F)cn4C)cc3F)c2n1` [Compound I-84, 9-(2-fluoro-4-(1-methyl-4-(trifluoromethyl)-1H-imidazol-2-yl)benzyl)-2-(2-isopropylpyridin-3-yl)-7,9-dihydro-8H-purin-8-one], the pIC50 is over 7.30. Under `CC(C)c1ccccc1-c1ncc2[nH]c(=O)n(Cc3ccc(-c4ccnn4C)cc3)c2n1` [Compound I-256, 2-(2-isopropylphenyl)-9-(4-(1-methyl-1H-pyrazol-5-yl)benzyl)-7,9-dihydro-8H-purin-8-one] stands over 7.30; under `CC(C)c1ccccc1-c1ncc2[nH]c(=O)n(Cc3ccc(-c4ncc(F)n4C)cc3)c2n1` [Compound I-176, 9-(4-(5-fluoro-1-methyl-1H-imidazol-2-yl)benzyl)-2-(2-isopropylphenyl)-7,9-dihydro-8H-purin-8-one], over 7.30.

For the compound `CC(C)c1ccccc1-c1ncc2[nH]c(=O)n(Cc3ccc(C(=O)N(C)C)cc3)c2n1` [Compound I-355, 4-((2-(2-isopropylphenyl)-8-oxo-7,8-dihydro-9H-purin-9-yl)methyl)-N,N-dimethylbenzamide], the negative logarithm of the IC50 (pIC50) was over 7.30. Regarding `CC(C)c1ccccc1-c1ncc2c(n1)n(Cc1ccc(N(C)CC3CC3)cc1)c(=O)n2C` [Compound I-490, 9-(4-((cyclopropylmethyl)(methyl)amino)benzyl)-2-(2-isopropylphenyl)-7-methyl-7,9-dihydro-8H-purin-8-one], the pIC50 is 5.70 to 6.70.
